The numbers were not newly measured in patent US20100137246A1, “Anti-inflammatory compositions and methods” (Searete LLC, a limited liability corporation of the State …, priority 2008, published 2010), which cites them from elsewhere.

In one data set the test system is proteasome. The conditions noted are these: cultured breast cancer cells; through binding copper.
The conditions of data set [1]: single agent, infused at 400 mg over one hour.
The subject of data set [2] is lethal septic shock in mice.
A further data set has as its target Fyn (Homo sapiens, UniProt P06241). The conditions noted are these: at nanomolar concentrations.

Chain of Fyn (P06241 whole entry, species assumed): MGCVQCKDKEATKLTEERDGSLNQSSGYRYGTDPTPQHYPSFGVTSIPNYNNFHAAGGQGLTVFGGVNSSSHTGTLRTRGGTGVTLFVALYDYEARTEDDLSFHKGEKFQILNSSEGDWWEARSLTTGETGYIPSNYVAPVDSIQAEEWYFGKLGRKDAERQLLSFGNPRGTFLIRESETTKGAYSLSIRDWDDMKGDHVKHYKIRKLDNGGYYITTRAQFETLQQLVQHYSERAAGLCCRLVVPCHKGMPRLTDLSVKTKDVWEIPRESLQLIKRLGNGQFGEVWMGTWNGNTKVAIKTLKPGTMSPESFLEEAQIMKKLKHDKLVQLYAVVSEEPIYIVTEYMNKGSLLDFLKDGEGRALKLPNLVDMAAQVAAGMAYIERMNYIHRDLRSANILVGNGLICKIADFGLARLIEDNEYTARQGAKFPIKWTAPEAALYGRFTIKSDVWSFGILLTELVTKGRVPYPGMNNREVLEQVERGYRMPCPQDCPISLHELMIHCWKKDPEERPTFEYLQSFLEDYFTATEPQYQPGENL

Turning to `CCN(CC)C(=S)SSC(=S)N(CC)CC` [disulfuram, 1-(diethylthiocarbamoyldisulfanyl)-N,N-diethyl-methanethioamide], in the data set on proteasome, the proteasomal activity entry is recorded as “inhibits proteasomal activity”.
In the case of `CCN(CC)CCCC(C)Nc1ccnc2cc(Cl)ccc12` (centres unmarked) [Chloroquine], the “inhibition of CpG-induced Src family kinase activation, or its dependent cellular responses” value in the data set on Src family kinase is “does not inhibit”.
Turning to `CCN(CC)CCCC(C)Nc1ccnc2cc(Cl)ccc12.O=P(O)(O)O.O=P(O)(O)O` (centres unmarked) [chloroquine phosphate, 7-chloro-4-[[4-(diethylamino)-1-methylbutyl]amino]quinoline phosphate (1:2)], the tolerability of infusion result in data set [1] is reported as “without complication”.
For `Cl.Cl.Nc1ccccc1Oc1ccc2c(N)nsc2c1` [Example M62812, 3-amino-6-(2-aminophenoxy)-1,2-benzisothiazole dihydrochloride], in data set [2], the “prevention of lethal septic shock” value is listed as “prevents lethal septic shock”.
Consider `Cc1nc(Nc2ncc(C(=O)Nc3c(C)cccc3Cl)s2)cc(N2CCN(CCO)CC2)n1.O` [dasatinib, N-(2-chloro-6-methylphenyl)-2-[[6-[4-(2-hydroxyethyl)-1-piperazinyl]-2-methyl-4-pyrimidinyl]amino]-5-thiazolecarboxamide, monohydrate], for which, on Fyn, the “inhibition of Fyn” value is “inhibits”.
